From publication PMC7806522, “Olfactory marker protein interacts with adenosine nucleotide derivatives” (Biochemistry and Biophysics Reports, 2021)

Columns and labels:
Format in all cases: biochemical
[1] = biological target: T1, Olfactory marker protein (OMP) (Mus musculus, UniProt Q64288); assay: BRET competition against […] 8NBD-cAMP (U-shaped, peak at […])
T1 construct: Rluc-OMP fusion (Rluc upstream of mouse OMP, NM_011010), from HEK293T lysate
T1 sequence (Q64288 2-163): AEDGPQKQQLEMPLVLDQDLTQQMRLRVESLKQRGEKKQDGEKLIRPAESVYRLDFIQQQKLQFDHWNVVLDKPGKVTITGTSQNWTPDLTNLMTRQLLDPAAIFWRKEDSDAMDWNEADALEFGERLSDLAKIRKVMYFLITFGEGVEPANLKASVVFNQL

[2] = biological target: T1, Olfactory marker protein (OMP); assay: BRET competition against […] 8NBD-cAMP (U-shaped)
[3] = biological target: T1, Olfactory marker protein (OMP); assay: direct BRET binding, Rluc-OMP to fluorescent TNP-ATP, Rluc-alone background subtracted

Nc1ncnc2c1ncn2[C@@H]1O[C@H](COP(=O)(O)OP(=O)(O)O)[C@@H](O)[C@H]1O [ADP]
concentration at peak BRET signal [1]: 1 to 3 µM

Nc1ncnc2c1ncn2[C@@H]1O[C@H](COP(=O)(O)OP(=O)(O)OP(=O)(O)O)[C@@H](O)[C@H]1O [ATP]
EC50 [2]: 1 ± 0.15 µM

Nc1ncnc2c1ncn2[C@@H]1O[C@H](COP(=O)(O)OP(=O)(O)OP(=O)(O)O)[C@H]2OC3(O[C@H]21)C([N+](=O)[O-])=CC(=[N+]([O-])[O-])C=C3[N+](=O)[O-] (stereo partly drawn) [TNP-ATP]
EC50 [3]: 13 ± 1.5 µM
